# Assay results as given in patent US20190389850A1, “COMPOUNDS” (GLAXOSMITHKLINE INTELLECTUAL PROPERTY DEVELOPMENT LIMITED, priority 2017, published 2019).
# Where “and” joins values, the source holds several entries; their conditions need not be identical. Equal entries are not always repeated.
# Target: T1, recombinant full length LRRK2 protein (LRRK2 Ser935 phosphorylation) (Homo sapiens, UniProt Q5S007)
# T1 construct: A BacMam virus expressing full length recombinant LRRK2 was purchased from Invitrogen; host or cells: SH-SY5Y human neuroblastoma cells transduced with BacMam LRRK2 virus
# Test: Recombinant cellular LRRK2 AlphaScreen assay
# Format: cell-based
# Conditions: SH-SY5Y cells over-expressing recombinant full length LRRK2, 60 minutes, read-out: pIC50 in the recombinant cellular LRRK2 AlphaScreen assay (converted)
# From the text: b. Recombinant Cellular LRRK2 AlphaScreen Assay
# To determine the activity of compounds against LRRK2 kinase activity in cells, the observed LRRK2 kinase-dependent modulation of LRRK2 Ser 935 phosphorylation (Dzamko et al., 2010, Biochem. J. 430: 405-413) was utilized to develop a quantitative 384 well plate-based immunoassay of LRRK2 Ser935 phosphorylation in the human neuroblastoma cell line SH-SY5Y, engineered to over-express recombinant full length LRRK2 protein.
# A BacMam virus expressing full length recombinant LRRK2 was purchased from Invitrogen and amplified by inoculation of SF-9 cells at MOI 0.3 for 4-5 days in Sf-900 III SFM medium supplemented with 3% fetal bovine serum. Infected cell cultures were then centrifuged at 2000 g for 20 minutes, viral supernatant titer determined by anti-gp64 plaque assay and stored at 4° C.
# Affinity-purified anti-phospho LRRK2 Ser935 sheep polyclonal antibody (Dzamko et al., 2010, Biochem. J. 430: 405-413) was biotinylated by standard methods (PerkinElmer). Anti-LRRK2 rabbit polyclonal antibody was purchased from Novus Biologicals. AlphaScreen Protein A IgG Kit (including acceptor and donor beads) was purchased from Perkin Elmer.
# SH-SY5Y cells were grown in DMEM/F12 medium with 10% dialysed fetal bovine serum and harvested by treatment with 0.5% trypsin-EDTA for 5 minutes at 37° C. followed by centrifugation at 1000 rpm for 4 minutes. The cell pellet was resuspended in Opti-MEM reduced serum media (Invitrogen) at 200,000 cells/ml and mixed with the BacMam LRRK2 virus at MOI=50. 50 μl cell solutions were then dispensed to each well of a 384-well plate and incubated at 37° C., 5% CO2 for 24 hours.
# Serial dilutions of test compounds were prepared in Opti-MEM reduced serum media (Invitrogen) and 5.6 ul transferred from compound plate to cell assay plate to achieve a top final assay concentration of 10 uM. DMSO was used in certain wells as controls. Cells were incubated at 37° C., 5% CO2 for 60 minutes. The medium was then removed and cells lysed by addition of 20 ul cell lysis buffer (Cell Signaling Technology) and incubation at 4° C. for 20 minutes. 10 ul of antibody/acceptor bead mix [(1/1000 biotinylated-pS935 LRRK2 antibody, 1/1000 total-LRRK2 antibody, 1/100 Acceptor beads in AlphaScreen detection buffer (25 mM Hepes (pH 7.4), 0.5% Triton X-100, 1 mg/ml Dextran 500 and 0.1% BSA)] was then added to each well and plates incubated for 2 hours at ambient temperature in the dark. 10 μl of donor beads solution (1/33.3 donor beads in AlphaScreen detection buffer) was then added to each well. Following incubation for a further 2 hours at ambient temperature in the dark, plates were read on an EnVision™ plate reader at emission 520-620 nm with excitation 680 nm. Dose response curve data was based on sigmoidal dose-response model.
# T1 sequence (Q5S007 whole entry): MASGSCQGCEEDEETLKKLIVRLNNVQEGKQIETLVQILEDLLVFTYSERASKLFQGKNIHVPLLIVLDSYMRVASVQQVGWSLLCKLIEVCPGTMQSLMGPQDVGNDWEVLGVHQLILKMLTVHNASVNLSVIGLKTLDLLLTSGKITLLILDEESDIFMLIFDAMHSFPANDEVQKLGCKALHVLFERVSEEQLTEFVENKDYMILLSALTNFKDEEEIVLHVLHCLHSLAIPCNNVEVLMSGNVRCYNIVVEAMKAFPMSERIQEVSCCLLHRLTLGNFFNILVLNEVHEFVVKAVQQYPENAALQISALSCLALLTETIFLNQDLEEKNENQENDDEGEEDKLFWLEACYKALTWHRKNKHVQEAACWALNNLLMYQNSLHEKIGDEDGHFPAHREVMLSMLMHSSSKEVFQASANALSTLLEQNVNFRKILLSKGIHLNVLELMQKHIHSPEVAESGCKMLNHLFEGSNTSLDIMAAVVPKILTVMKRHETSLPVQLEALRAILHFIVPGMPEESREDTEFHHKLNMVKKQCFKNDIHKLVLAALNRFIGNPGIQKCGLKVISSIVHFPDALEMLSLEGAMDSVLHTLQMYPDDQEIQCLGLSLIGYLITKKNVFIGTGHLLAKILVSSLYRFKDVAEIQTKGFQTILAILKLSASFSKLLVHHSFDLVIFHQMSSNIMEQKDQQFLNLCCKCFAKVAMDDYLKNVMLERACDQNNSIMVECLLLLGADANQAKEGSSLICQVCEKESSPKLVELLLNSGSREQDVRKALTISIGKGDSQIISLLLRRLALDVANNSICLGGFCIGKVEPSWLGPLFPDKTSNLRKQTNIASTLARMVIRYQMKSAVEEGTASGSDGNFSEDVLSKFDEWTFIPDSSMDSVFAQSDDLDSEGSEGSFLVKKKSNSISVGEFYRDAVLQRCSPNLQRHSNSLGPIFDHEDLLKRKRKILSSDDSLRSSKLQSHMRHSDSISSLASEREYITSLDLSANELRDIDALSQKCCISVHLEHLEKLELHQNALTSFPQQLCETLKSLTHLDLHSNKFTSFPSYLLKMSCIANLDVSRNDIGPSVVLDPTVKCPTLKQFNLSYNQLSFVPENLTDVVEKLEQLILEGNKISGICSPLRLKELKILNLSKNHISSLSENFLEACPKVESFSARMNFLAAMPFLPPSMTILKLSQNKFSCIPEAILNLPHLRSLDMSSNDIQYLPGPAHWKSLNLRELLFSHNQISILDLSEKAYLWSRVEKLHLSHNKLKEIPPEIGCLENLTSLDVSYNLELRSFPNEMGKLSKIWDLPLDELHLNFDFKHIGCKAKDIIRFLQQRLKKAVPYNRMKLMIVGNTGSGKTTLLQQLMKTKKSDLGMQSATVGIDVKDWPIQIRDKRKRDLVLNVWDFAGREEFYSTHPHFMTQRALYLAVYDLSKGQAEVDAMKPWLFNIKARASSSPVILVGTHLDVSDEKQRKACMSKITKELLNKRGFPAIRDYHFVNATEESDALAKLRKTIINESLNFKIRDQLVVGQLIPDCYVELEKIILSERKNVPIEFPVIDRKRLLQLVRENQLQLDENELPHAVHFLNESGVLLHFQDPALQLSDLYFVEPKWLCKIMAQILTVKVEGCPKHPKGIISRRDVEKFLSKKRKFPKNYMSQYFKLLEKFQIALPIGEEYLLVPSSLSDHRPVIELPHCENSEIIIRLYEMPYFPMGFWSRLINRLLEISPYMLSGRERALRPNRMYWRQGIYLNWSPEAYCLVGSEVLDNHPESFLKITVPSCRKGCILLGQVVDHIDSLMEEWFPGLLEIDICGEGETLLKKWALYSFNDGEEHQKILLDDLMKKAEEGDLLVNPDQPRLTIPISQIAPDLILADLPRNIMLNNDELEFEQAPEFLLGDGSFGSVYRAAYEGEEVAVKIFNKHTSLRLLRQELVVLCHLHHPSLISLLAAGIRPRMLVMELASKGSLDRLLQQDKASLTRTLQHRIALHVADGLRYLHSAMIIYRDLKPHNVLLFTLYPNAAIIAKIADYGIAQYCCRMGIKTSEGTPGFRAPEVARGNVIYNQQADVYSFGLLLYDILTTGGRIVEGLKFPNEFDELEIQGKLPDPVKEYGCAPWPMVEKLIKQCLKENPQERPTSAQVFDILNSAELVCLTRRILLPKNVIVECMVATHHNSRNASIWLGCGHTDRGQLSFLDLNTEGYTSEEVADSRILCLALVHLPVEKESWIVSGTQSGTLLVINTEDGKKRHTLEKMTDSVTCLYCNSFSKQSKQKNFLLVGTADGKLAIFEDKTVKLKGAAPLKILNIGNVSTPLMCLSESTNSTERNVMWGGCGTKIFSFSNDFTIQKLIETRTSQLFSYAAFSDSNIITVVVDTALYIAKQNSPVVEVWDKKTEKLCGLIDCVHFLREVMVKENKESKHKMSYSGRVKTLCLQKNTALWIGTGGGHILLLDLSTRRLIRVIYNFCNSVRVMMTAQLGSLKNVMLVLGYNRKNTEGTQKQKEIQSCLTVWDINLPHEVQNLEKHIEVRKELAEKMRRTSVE
row,SMILES,IC50
1,"Cc1nc(N2CC(C)OC(CO)C2)cc(-n2ncc3cc(C)c(C4CCN(C5COC5)CC4)cc32)n1 (single isomer, unassigned) [Example B-1, (6-Methyl-4-(2-methyl-6-(5-methyl-6-(1-(oxetan-3-yl)piperidin-4-yl)-1H-indazol-1-yl)pyrimidin-4-yl)morpholin-2-yl)methanol]",50.1 nM
2,"Cc1nc(N2CC(C)OC(CO)C2)cc(-n2ncc3cc(C)c(C4CCN(C5COC5)CC4)cc32)n1 (single isomer, unassigned) [Example B-2, (6-Methyl-4-(2-methyl-6-(5-methyl-6-(1-(oxetan-3-yl)piperidin-4-yl)-1H-indazol-1-yl)pyrimidin-4-yl)morpholin-2-yl)methanol]",79.4 nM
3,"Cc1nc(N2CC(C)OC(CO)C2)cc(-n2ncc3cc(C)c(C4CCN(C5COC5)CC4)cc32)n1 (single isomer, unassigned) [Example B-3, (6-Methyl-4-(2-methyl-6-(5-methyl-6-(1-(oxetan-3-yl)piperidin-4-yl)-1H-indazol-1-yl)pyrimidin-4-yl)morpholin-2-yl)methanol]",50.1 nM
4,"Cc1nc(N2CCO[C@@H](CO)C2)cc(-n2ncc3cc(C)c(C4CCN(C5(C)COC5)CC4)cc32)n1 [Example A-1, (R)-(4-(2-Methyl-6-(5-methyl-6-(1-(3-methyloxetan-3-yl)piperidin-4-yl)-1H-indazol-1-yl)pyrimidin-4-yl)morpholin-2-yl)methanol]",200 nM
5,"COc1nc(N2CCO[C@H](CO)C2)cc(-n2ncc3cc(C)c(C4CCN(C5(C)COC5)CC4)cc32)n1 [Example A-3, (S)-(4-(2-Methoxy-6-(5-methyl-6-(1-(3-methyloxetan-3-yl)piperidin-4-yl)-1H-indazol-1-yl)pyrimidin-4-yl)morpholin-2-yl)methanol]",≤ 31.6 nM and 12.6 nM
6,"COc1nc(N2CCO[C@@H](CO)C2)cc(-n2ncc3cc(C)c(C4CCN(C5(C)COC5)CC4)cc32)n1 [Example A-4, (R)-(4-(2-Methoxy-6-(5-methyl-6-(l-(3-methyloxetan-3-yl)piperidin-4-yl)-1H-indazol-1-yl)pyrimidin-4-yl)morpholin-2-yl)methanol]",≤ 31.6 nM

# The next lines start with the values.
row,IC50,SMILES
1,316 nM,"Cc1nc(N2CC(C)OC(CO)C2)cc(-n2ncc3cc(C)c(C4CCN(C5COC5)CC4)cc32)n1 (single isomer, unassigned) [Example B-4, (6-Methyl-4-(2-methyl-6-(5-methyl-6-(1-(oxetan-3-yl)piperidin-4-yl)-1H-indazol-1-yl)pyrimidin-4-yl)morpholin-2-yl)methanol]"
2,63.1 nM,"Cc1nc(N2CC(CO)OCC2C)cc(-n2ncc3cc(C)c(C4CCN(C5COC5)CC4)cc32)n1 (single isomer, unassigned) [Example B-6, (5-methyl-4-(2-methyl-6-(5-methyl-6-(1-(oxetan-3-yl)piperidin-4-yl)-1H-indazol-1-yl)pyrimidin-4-yl)morpholin-2-yl)methanol]"
3,79.4 nM,"Cc1nc(N2CCOC(CCO)C2)cc(-n2ncc3cc(C)c(C4CCN(C5COC5)CC4)cc32)n1 (single isomer, unassigned) [Example B-7, 2-(4-(2-methyl-6-(5-methyl-6-(1-(oxetan-3-yl)piperidin-4-yl)-1H-indazol-1-yl)pyrimidin-4-yl)morpholin-2-yl)ethanol]"
4,100 nM,"Cc1nc(N2CCOC(CCO)C2)cc(-n2ncc3cc(C)c(C4CCN(C5COC5)CC4)cc32)n1 (single isomer, unassigned) [Example B-8, 2-(4-(2-methyl-6-(5-methyl-6-(1-(oxetan-3-yl)piperidin-4-yl)-1H-indazol-1-yl)pyrimidin-4-yl)morpholin-2-yl)ethanol]"

# Target: T2, Full length G2019 human LRRK2 (Homo sapiens, UniProt Q5S007)
# T2 construct: purified recombinant Full length Flag-LRRK2; made in house; host or cells: HEK293 6E cells transduced with BacMam virus (virus made in Sf9)
# Test: Full length G2019 human LRRK2 Inhibition Mass Spectrometry assay
# Format: biochemical
# Conditions: LRRKtide to phospho-LRRKtide conversion, RapidFire mass spectrometry; 25 nM LRRK2, 2 mM ATP; read-out: pIC50 in the full length G2019 human LRRK2 Inhibition Mass Spectrometry assay (converted)
# Procedure: a. Full Length G2019 Human LRRK2 Inhibition Mass Spectrometry Assay
# This assay for Leucine Rich Repeat Kinase 2 (LRRK2) inhibition is based on the direct measurement of the peptide ‘LRRKtide’ (LRRKtide: RLGRDKYKT*LRQIRQ and “*” refers to the site of phosphorylation.) and phosphorylated ‘LRRKtide’ using a high throughput RapidFire mass spectrometry assay. Inhibitors are compounds that reduce the conversion of LRRKtide to phospho-LRRKtide.
# • 1) A 10 mM test compound was dissolved in 100% DMSO and serially diluted 1 in 4. 100 nL of this dilution series was then added to a 384 well, v bottom polypropylene plate, excluding columns 6 and 18. 100 nL of DMSO was added to columns 6 and 18 as controls wells. […] Test plates were then analysed on an Agilent RapidFire High Throughput solid phase extraction system coupled to AB Sciex API 4000 triple quadropole mass spectrometer with the following setting: RapidFire settings: • Sip Height=2 mm, Aspirate=500 ms, Load time=3000 ms, Elution time=3000 ms, Requilibration=500 ms. • Flow rates: pump 1=1.5 mL/min, pump 2 1.25 mL/min pump 3=0.8 mL/min Mass Spectrometer Settings: • LRRKtide Detection settings: Q1 mass 644.8 Da, Q3 mass 638.8, declustering potential 76 volts, collision energy 37 volts, CXP 34 volts. • Phospho-LRRKtide Detection settings: Q1 mass 671.4 Da, Q3 mass 638.8, Declustering potential 76 volts, Collision energy 37 volts, CXP 34 volts. • A C4 cartridge was used and running buffers were: A (aqueous) 0.1% formic acid in water B (organic) 0.1% formic acid, 80% acetonitrile, 20% water. • Collision gas: 12, Curtain gas: 25, Ion Source gas (1): 60, Ion Source gas (2): 60, Ion Spray Voltage: 5500, Temperature: 600, Interface Heater: ON. • Resolution Q1: low, Resolution Q3: low. • 6) Data was analysed using ActivityBase software (IDBS). A percent conversion from LRRKtide to Phospho-LRRKtide was calculated using the following formula: […]
# T2 sequence (Q5S007 with tags, fused parts or gaps R50H): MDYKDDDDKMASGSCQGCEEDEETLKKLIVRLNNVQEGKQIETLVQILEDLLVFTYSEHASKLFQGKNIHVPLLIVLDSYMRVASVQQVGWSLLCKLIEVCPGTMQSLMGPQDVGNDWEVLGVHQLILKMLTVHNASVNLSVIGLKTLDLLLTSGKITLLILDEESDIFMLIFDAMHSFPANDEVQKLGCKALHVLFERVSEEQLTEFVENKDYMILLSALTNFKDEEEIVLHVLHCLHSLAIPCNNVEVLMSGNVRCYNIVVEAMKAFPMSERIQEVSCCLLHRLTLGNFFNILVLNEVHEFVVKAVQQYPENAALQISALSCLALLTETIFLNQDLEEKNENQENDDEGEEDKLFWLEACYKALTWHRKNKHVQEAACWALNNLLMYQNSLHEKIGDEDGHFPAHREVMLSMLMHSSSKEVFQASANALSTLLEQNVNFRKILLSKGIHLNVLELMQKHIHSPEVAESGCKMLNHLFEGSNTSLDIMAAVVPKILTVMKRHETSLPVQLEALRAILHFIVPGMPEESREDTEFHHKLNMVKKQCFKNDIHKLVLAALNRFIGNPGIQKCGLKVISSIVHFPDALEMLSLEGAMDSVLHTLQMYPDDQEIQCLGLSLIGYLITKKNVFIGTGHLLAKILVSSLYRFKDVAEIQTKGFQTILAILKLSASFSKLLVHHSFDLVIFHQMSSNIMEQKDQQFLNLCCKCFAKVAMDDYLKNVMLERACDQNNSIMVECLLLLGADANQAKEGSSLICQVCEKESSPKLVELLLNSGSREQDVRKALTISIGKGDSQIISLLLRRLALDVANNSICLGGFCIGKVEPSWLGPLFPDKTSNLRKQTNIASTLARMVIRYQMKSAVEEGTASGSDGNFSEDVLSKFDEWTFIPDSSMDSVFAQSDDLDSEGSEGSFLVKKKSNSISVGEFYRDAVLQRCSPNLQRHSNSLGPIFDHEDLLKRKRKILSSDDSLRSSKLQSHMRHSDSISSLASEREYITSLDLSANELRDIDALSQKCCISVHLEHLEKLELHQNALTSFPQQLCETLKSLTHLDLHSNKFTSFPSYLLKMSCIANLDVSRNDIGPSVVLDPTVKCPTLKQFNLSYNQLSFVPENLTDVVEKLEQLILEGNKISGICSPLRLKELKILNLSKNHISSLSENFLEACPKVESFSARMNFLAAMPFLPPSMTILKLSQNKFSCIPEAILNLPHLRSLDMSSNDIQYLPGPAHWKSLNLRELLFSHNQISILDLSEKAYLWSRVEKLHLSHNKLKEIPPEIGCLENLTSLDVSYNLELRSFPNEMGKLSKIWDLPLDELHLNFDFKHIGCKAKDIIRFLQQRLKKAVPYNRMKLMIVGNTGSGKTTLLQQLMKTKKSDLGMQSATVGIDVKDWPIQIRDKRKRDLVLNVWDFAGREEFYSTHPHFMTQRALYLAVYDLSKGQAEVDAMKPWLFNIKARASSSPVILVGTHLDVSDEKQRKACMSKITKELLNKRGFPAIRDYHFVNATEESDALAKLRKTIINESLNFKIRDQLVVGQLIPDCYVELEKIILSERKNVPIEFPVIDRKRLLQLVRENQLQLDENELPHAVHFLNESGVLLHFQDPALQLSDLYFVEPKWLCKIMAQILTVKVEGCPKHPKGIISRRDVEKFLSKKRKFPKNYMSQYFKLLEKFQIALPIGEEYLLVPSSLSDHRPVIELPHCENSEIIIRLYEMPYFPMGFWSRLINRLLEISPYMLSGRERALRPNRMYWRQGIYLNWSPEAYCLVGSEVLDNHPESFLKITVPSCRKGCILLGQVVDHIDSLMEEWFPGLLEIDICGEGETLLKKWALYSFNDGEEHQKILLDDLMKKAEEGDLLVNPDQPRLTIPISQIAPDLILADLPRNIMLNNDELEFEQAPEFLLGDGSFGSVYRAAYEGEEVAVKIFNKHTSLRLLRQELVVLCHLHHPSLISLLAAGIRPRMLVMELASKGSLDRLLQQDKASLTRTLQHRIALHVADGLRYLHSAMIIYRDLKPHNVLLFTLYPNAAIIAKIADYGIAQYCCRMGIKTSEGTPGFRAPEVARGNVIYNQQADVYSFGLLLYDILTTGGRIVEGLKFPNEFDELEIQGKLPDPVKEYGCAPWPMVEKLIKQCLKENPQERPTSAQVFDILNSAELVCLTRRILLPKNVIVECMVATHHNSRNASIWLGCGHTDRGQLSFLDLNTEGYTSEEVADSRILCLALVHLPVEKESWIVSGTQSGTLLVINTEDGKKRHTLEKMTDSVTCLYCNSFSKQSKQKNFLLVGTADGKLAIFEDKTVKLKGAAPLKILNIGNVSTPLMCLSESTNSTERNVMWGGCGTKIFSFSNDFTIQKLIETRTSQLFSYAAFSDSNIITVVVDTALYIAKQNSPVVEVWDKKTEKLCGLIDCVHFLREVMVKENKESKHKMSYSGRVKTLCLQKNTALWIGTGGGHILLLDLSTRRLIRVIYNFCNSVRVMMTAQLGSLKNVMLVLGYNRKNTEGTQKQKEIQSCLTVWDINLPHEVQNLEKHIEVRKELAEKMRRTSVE
row,IC50,SMILES
1,≤ 100 nM,"Cc1nc(N2CCOC(CCO)C2)cc(-n2ncc3cc(C)c(C4CCN(C5COC5)CC4)cc32)n1 (single isomer, unassigned) [Example B-7, 2-(4-(2-methyl-6-(5-methyl-6-(1-(oxetan-3-yl)piperidin-4-yl)-1H-indazol-1-yl)pyrimidin-4-yl)morpholin-2-yl)ethanol]"
2,≤ 100 nM,"Cc1nc(N2CCO[C@@H](CO)C2)cc(-n2ncc3cc(C)c(C4CCN(C5(C)COC5)CC4)cc32)n1 [Example A-1, (R)-(4-(2-Methyl-6-(5-methyl-6-(1-(3-methyloxetan-3-yl)piperidin-4-yl)-1H-indazol-1-yl)pyrimidin-4-yl)morpholin-2-yl)methanol]"
3,≤ 100 nM,"Cc1nc(N2CCO[C@H](CO)C2)cc(-n2ncc3cc(C)c(C4CCN(C5(C)COC5)CC4)cc32)n1 [Example A-2, (S)-(4-(2-Methyl-6-(5-methyl-6-(1-(3-methyloxetan-3-yl)piperidin-4-yl)-1H-indazol-1-yl)pyrimidin-4-yl)morpholin-2-yl)methanol]"
